We go through 7 compounds from patent US6849649B2, “N-phenpropylcyclopentyl-substituted glutaramide derivatives as inhibitors of neutral endopeptidase” (Pfizer Inc., priority 2001, dated 2005).

Data set [1] has as its target T1, NEP from canine kidney (Canis lupus familiaris, UniProt A0A8I3PBM8).
T1 construct: determined using NEP from canine kidney; from tissue; host or cells: canine kidney
T1 sequence (A0A8I3PBM8 1-749): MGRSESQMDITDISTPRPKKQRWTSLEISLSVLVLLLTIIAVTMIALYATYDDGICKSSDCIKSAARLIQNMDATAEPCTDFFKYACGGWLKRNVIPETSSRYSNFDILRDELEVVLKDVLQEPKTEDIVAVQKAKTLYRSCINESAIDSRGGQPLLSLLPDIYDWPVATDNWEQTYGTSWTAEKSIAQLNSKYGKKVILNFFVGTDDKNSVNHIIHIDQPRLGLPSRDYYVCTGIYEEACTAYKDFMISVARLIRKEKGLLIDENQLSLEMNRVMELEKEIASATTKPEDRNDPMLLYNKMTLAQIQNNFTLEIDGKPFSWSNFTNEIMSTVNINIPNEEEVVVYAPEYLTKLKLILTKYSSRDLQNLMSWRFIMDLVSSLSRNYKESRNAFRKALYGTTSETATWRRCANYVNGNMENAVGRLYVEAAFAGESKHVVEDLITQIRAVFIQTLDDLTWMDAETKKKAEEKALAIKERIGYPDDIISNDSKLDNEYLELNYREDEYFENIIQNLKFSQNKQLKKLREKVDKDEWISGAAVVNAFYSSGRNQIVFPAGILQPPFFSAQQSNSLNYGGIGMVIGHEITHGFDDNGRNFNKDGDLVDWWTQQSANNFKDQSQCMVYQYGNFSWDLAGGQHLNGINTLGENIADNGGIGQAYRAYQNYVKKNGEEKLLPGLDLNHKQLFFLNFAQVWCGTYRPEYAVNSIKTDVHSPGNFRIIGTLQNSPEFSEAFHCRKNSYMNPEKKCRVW
Nature of the data set: IC50 against NEP (canine kidney). The data set is classed as biochemical. The procedure: The IC50 values presented below were determined using NEP from canine kidney.

Where [2] appears, read: NEP from canine kidney, read-out: IC50 against NEP.

Counter-ions that a name gives are not always drawn. Like-named read-outs stand apart in the source and are kept apart here.

With `COCCC(CC1(C(=O)NCCCc2ccc(OC)cc2)CCCC1)C(=O)O` (centres unmarked) (as salt: sodium) [Example 1, 4-Methoxy-2-{[1-({[3-(4-methoxyphenyl)propyl]amino}carbonyl)cyclopentyl]-methyl}butanoic acid], the melting point lay in the range of 214 to 216 °C.
For the compound `COCCC(CC1(C(=O)NC(C)COc2ccccc2Cl)CCCC1)C(=O)O` (centres unmarked) [Example 3], in data set [1] (setting [2]), the half-inhibitory concentration (IC50) turned out to be 0.022 µM.
Take `COCCC(CC1(C(=O)NCCCc2ccc(F)cc2)CCCC1)C(=O)O` (centres unmarked) [Example 4, 2-{[1-({[3-(4-fluorophenyl)propyl]amino}carbonyl)cyclopentyl]methyl}-4-methoxybutanoic acid]: half-maximal inhibition in data set [1] (IC50) was put at 0.004 µM.
Regarding `O=C(O)CCC1(C(=O)NCCCc2ccc3c(c2)CCO3)CCCC1` [Example 21], the melting point lay in the range of 94.5 to 97 °C. Further, in data set [1] (setting [2]), the IC50 worked out at 0.003 µM.
`O=C(O)CCC1(C(=O)NCCCc2cccc3ccccc23)CCCC1` [Example 33]: in data set [1] (setting [2]), the 50% inhibitory concentration (IC50) turned out to be 0.047 µM.
In the case of `COCC[C@H](CC1(C(=O)NCCCc2ccc3c(c2)OCCO3)CCCC1)C(=O)O` [Example 43], the IC50 in data set [1] (setting [2]) worked out at 0.029 µM.
The same measure, in the same setting: the value for `CC(CCNC(=O)C1(CCC(=O)O)CCCC1)c1ccc2c(c1)CCO2` (centres unmarked) [Example 51] was 0.009 µM.
